Reference: ChEMBL document CHEMBL3039007, “Structure-based identification of OATP1B1/3 inhibitors” (Mol Pharmacol, 2013)

How the values were obtained:
[1] = biological target: T1, Solute carrier organic anion transporter family member 1B1 (Homo sapiens, UniProt Q9Y6L6); conditions: chinese hamster, cho, 10 µM
T1 sequence (Q9Y6L6 whole entry): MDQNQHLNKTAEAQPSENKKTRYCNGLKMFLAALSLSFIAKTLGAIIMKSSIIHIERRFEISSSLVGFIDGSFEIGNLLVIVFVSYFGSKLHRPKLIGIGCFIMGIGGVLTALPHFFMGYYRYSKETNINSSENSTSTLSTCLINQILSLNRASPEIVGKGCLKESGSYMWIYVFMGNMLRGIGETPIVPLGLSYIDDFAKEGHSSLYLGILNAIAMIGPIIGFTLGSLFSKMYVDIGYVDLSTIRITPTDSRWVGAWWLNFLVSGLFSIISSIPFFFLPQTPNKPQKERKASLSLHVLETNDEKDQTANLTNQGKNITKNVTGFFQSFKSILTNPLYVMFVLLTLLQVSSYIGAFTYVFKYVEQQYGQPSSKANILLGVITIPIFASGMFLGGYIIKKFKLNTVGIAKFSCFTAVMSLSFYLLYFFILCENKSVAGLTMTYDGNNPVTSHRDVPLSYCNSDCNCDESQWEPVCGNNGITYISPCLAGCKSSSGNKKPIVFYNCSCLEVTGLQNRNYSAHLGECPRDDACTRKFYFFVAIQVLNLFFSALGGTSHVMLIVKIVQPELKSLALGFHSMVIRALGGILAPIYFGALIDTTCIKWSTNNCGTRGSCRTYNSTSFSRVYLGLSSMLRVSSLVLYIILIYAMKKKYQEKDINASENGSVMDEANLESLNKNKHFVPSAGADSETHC

[2] = biological target: T2, Solute carrier organic anion transporter family member 1B3 (Homo sapiens, UniProt Q9NPD5); conditions: chinese hamster, cho, 10 µM
T2 sequence (Q9NPD5 whole entry): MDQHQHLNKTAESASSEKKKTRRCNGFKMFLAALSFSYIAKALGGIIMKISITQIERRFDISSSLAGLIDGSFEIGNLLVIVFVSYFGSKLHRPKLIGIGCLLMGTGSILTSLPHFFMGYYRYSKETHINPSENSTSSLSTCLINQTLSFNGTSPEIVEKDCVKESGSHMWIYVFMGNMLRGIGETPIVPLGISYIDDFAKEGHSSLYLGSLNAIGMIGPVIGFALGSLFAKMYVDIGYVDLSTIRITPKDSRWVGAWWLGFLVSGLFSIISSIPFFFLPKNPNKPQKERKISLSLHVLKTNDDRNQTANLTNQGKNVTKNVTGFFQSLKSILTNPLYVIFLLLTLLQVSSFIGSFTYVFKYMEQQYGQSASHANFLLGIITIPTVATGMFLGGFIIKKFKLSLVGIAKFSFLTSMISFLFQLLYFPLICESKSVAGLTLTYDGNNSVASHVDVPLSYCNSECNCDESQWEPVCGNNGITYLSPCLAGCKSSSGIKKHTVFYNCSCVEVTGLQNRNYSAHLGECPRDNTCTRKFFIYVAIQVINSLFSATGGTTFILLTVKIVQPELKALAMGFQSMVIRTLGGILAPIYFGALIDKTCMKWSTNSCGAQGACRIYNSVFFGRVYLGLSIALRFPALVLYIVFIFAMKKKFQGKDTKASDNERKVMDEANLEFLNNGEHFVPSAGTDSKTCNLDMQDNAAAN

| SMILES | residual activity [1] [%] | residual activity [2] [%] |
| --- | --- | --- |
| C[C@@H]1O[C@@H](O[C@H]2[C@H](O[C@H]3CC[C@@]4(C)[C@@H](CC[C@]5(C)[C@@H]4CC=C4[C@@H]6CC(C)(C)CC[C@]6(C(=O)O[C@@H]6O[C@H](CO[C@@H]7O[C@H](CO)[C@@H](O[C@@H]8O[C@@H](C)[C@H](O)[C@@H](O)[C@H]8O)[C@H](O)[C@H]7O)[C@@H](O)[C@H](O)[C@H]6O)CC[C@]45C)[C@]3(C)CO)OC[C@H](O)[C@@H]2O)[C@H](O)[C@H](O)[C@H]1O [KALOPANAXSAPONIN B] | 127.7 | 109.8 |
| NCC(CC(=O)O)c1ccc(Cl)cc1 (stereo unspecified) [BACLOFEN] | 80.8 | 102.2 |
| CN(C)C(=O)Oc1ccc[n+](C)c1.[Br-] [PYRIDOSTIGMINE BROMIDE] | 96.49 | 112 |
| Nc1ncn([C@@H]2O[C@H](CO)[C@@H](O)[C@H]2O)c(=O)n1 [AZACITIDINE] | 108.4 | 96.87 |
| COc1ccc(C[C@H]2NC[C@H](O)[C@H]2OC(C)=O)cc1 [ANISOMYCIN] | 81.33 | 81.11 |
| O=c1c2ccccc2oc2ccccc12 [XANTHONE] | 123.7 | 131.5 |
| Cc1cc(CC(=O)[O-])n(C)c1C(=O)c1ccc(Cl)cc1.O.O.[Na+] [ZOMEPIRAC SODIUM] | 132.9 | 118.7 |
| C[C@H](C[C@@H](O)[C@@H]1OC1(C)C)[C@@H]1CC[C@]2(C)C3=CC[C@H]4C(C)(C)C(=O)CC[C@]4(C)[C@H]3CC[C@@]12C [NILOTICIN] | 72.03 | 113.7 |
| O=c1c(O)c(-c2ccccc2)oc2ccccc12 [FLAVONOL] | 133.5 | 102.6 |
| O=C/C=C/c1ccc(O)cc1 [p-HYDROXYCINNAMALDEHYDE] | 139.6 | 70.79 |
| Nc1ccc(S(N)(=O)=O)cc1 [SULFANILAMIDE] | 113.8 | 155.8 |
| COc1c(C(=O)O)ccc2c1CCC(C)(C)O2 [DIHYDRO-beta-TUBAIC ACID] | 98.02 | 102.8 |
| Cc1cc(C)nc(NS(=O)(=O)c2ccc(N)cc2)n1 [SULFAMETHAZINE] | 90.46 | 97.37 |
| O=C(CCCCCCCCCCCCC1CCCC1)Nc1ccc(S(=O)(=O)c2ccc(NC(=O)CCCCCCCCCCCCC3CCCC3)cc2)cc1 [CHAULMOSULFONE] | 65.99 | 75.08 |
| COc1cc2ccc(=O)oc2c(O)c1O [FRAXETIN] | 68.87 | 106.2 |
| COc1cc(O)c(C(=O)c2ccccc2)cc1O [CEAROIN] | 91.48 | 120.9 |
| CNNC.Cl [1,2-DIMETHYLHYDRAZINE HYDROCHLORIDE] | 108.5 | 99.77 |
| CC(=O)Oc1cc(OC(C)=O)c2c(c1)O[C@H](c1ccc(OC(C)=O)c(OC(C)=O)c1)[C@@H](OC(C)=O)C2 [CATECHIN PENTAACETATE] | 82.47 | 104.9 |
| COc1ccc(-c2cc(=O)c3ccc(OC)cc3o2)cc1 [4,7-DIMETHOXYFLAVONE] | 91.89 | 87.07 |
| CN(Cc1cc(Br)cc(Br)c1N)C1CCCCC1.Cl [BROMHEXINE HYDROCHLORIDE] | 103.1 | 95.98 |
| CN(C)CCCN1c2ccccc2CCc2ccc(Cl)cc21.Cl [CLOMIPRAMINE HYDROCHLORIDE] | 43.58 | 78.81 |
| C[C@@H]1C[C@H]2[C@@H]3CCC4=CC(=O)C=C[C@]4(C)[C@@]3(Cl)[C@@H](O)C[C@]2(C)[C@@]1(OC(=O)c1ccco1)C(=O)CCl [MOMETASONE FUROATE] | 34.01 | 25.64 |
| CNC[C@H](O)c1cccc(O)c1.Cl [PHENYLEPHRINE HYDROCHLORIDE] | 91.9 | 106.2 |
